For series [1] the following is noted: cited from earlier work.
For series [2] the following is noted: cited from earlier work; for pGa: [L] = 10 μM, [M] = 1 μM, pH = 7.4.
A short description of series [3]: Complex formation equilibria with Cu(II) (potentiometric–spectrophotometric and in-batch acidic UV titrations). Format: physicochemical. To be noted: literature chelators, no reference given for the value; [L] = 10 μM, [M] = 1 μM, pH = 7.4. The protocol: Protonation constants and metal stability constants were determined through a multitechnique approach. Combined potentiometric–spectrophotometric titrations were carried out using a Metrohm Titrando 809 equipped with a Ross combined electrode and a Metrohm Dosino 800. The glass cell containing the solutions to be titrated was maintained at a constant temperature, 25 °C, and connected with an inlet–outlet tube for nitrogen gas (purified through a 10% NaOH solution) to exclude CO2 prior to and during the titration. Daily electrode calibrations were carried out at proton ion concentration, and the results were analyzed with the Gran[41] procedure to obtain the standard potential (E°) and the ionic product of water pKw at T = 25 °C and I = 0.16 M NaCl. […] The exact amount of acid present was determined by the titration of equimolar solutions of either Cu(II) or Ga(III) and Na2H2EDTA using Gran plotting.[41]
Complex formation equilibria of either Ga(III) or Cu(II) with H2L^1 were studied using two different methods. […] The pH in the most acidic samples was calculated from the H^+ concentration when the pH was below the electrode threshold. From very acidic pH, both Cu(II) and Ga(III) complexes formed, and the first protonated complex species ([Cu(H3L^1)]^3+ and [Ga(H2L^1)]^3+) were determined through the fitting of these experiments with the HypSpec2014 program[42] […]

For series [4] the following is noted: cited from earlier work. The source holds these as a separate data set.
Series [5] in a line: Complex formation equilibria with Ga(III) (potentiometric–spectrophotometric and in-batch acidic UV titrations). It is filed as physicochemical. To be noted: for pGa, corrected value: from corrected log KML, [L] = 10 μM, [M] = 1 μM, pH = 7.4; for log KML (M = Ga^3+), corrected value: refit of potentiometric curve in competition with [Ga(OH)4]−, I = 0.15 M NaCl, 25 °C (Supporting Information). The procedure:
Protonation constants and metal stability constants were determined through a multitechnique approach. Combined potentiometric–spectrophotometric titrations were carried out using a Metrohm Titrando 809 equipped with a Ross combined electrode and a Metrohm Dosino 800. The glass cell containing the solutions to be titrated was maintained at a constant temperature, 25 °C, and connected with an inlet–outlet tube for nitrogen gas (purified through a 10% NaOH solution) to exclude CO2 prior to and during the titration. […] The calibrations involved HCl standard being titrated with carbonate-free titrant NaOH(aq) (0.15 M), and the ionic strength was maintained constant to 0.16 M by the addition of a NaCl solution. The NaOH was previously standardized against freshly dried potassium hydrogen phthalate crystals. Copper and gallium metal-ion solutions used in metal complexation experiments were prepared by the dilution of AA standards. The exact amount of acid present was determined by the titration of equimolar solutions of either Cu(II) or Ga(III) and Na2H2EDTA using Gran plotting.[41]
Complex formation equilibria of either Ga(III) or Cu(II) with H2L^1 were studied using two different methods. […] The pH in the most acidic samples was calculated from the H^+ concentration when the pH was below the electrode threshold. From very acidic pH, both Cu(II) and Ga(III) complexes formed, and the first protonated complex species ([Cu(H3L^1)]^3+ and [Ga(H2L^1)]^3+) were determined through the fitting of these experiments with the HypSpec2014 program[42] (Figures S50–S52 and S56–S58 and Table S3). […] Dissociation constants corresponding to the hydrolysis of Ga(III) and Cu(II) aqueous ions included in the calculations were taken from Baes and Mesmer.[46] Complexation of H2L^1 with Ga(III) was further corroborated by the findings of ^1H NMR experiments at different pD values (Figures 3 and S26). Similarly, complexation of H2L^2 with Cu(II) or Ga(III) was studied by in-batch acidic UV experiments in a set of solutions prepared with the experimental conditions [H2L^2] = [Ga^3+] = 1 × 10^–4 M; [H2L^2] = [Cu^2+] = 7 × 10^–4 M, and the pH was adjusted by the addition of different amounts of standardized HCl. The ionic strength was maintained constant at 0.16 M when possible by the addition of NaCl. The first-formed complex species ([Cu(HL^2)]^+, [CuL^2], and [GaL^2]^+) were determined through fitting of the experimental data (Figures S53–S55 and S59–S61 and Table S3). […]

Series [6] in a line: Protonation constants by combined potentiometric–spectrophotometric, in-batch acidic UV and 1H NMR titrations. Format: physicochemical. Conditions: 25 °C, I = 0.16 M NaCl. The procedure: Protonation constants and metal stability constants were determined through a multitechnique approach. Combined potentiometric–spectrophotometric titrations were carried out using a Metrohm Titrando 809 equipped with a Ross combined electrode and a Metrohm Dosino 800. The glass cell containing the solutions to be titrated was maintained at a constant temperature, 25 °C, and connected with an inlet–outlet tube for nitrogen gas (purified through a 10% NaOH solution) to exclude CO2 prior to and during the titration. Daily electrode calibrations were carried out at proton ion concentration, and the results were analyzed with the Gran[41] procedure to obtain the standard potential (E°) and the ionic product of water pKw at T = 25 °C and I = 0.16 M NaCl. The calibrations involved HCl standard being titrated with carbonate-free titrant NaOH(aq) (0.15 M), and the ionic strength was maintained constant to 0.16 M by the addition of a NaCl solution. The NaOH was previously standardized against freshly dried potassium hydrogen phthalate crystals. Copper and gallium metal-ion solutions used in metal complexation experiments were prepared by the dilution of AA standards. The exact amount of acid present was determined by the titration of equimolar solutions of either Cu(II) or Ga(III) and Na2H2EDTA using Gran plotting.[41]
Protonation equilibria of either H2L^1 or H2L^2 were studied by titrations of solutions containing [H2L^1] = 9.56 × 10^–4 M or [H2L^2] = 5.87 × 10^–4 M at 25 °C and 0.16 M NaCl ionic strength using a potentiometric–spectrophotometric procedure. In each titration (100–150 equilibrium points and pH range 2–11), the electromotive force values were recorded after 2 min of each NaOH addition and the spectrophotometer was synchronized to obtain a UV spectrum for each pH data point. Spectra were recorded in the 200–400 nm wavelength range with a 0.2-cm-path-length optic dip probe connected to a Varian Cary 60 UV–vis spectrophotometer. The obtained spectrophotometric and potentiometric data were analyzed with HypSpec2014([42]) and HyperQuad2013([43]) to obtain the protonation constants and molar absorptivities of the different absorbing species of the ligands (Table 3 and Figures S42–S49 and S51B). […] Additional ^1H NMR titrations were carried out for H2L^1 to better understand the protonation sequence and their assignments (Figures S45 and S46). A set of H2L^1 solutions (4 × 10^–3 M) in D2O were prepared by the addition of DCl or NaOD, and their ^1H NMR spectra were recorded. The pH values of the samples were then measured with a microelectrode (Mettler Toledo), which was calibrated daily at H^+ concentration as described above. The pH was corrected for the deuterium isotopic effect (pD = pHreading + 0.4).[44]

Where [7] appears, read: Table S4 footnote f, ref 8 (SI).
Where [8] appears, read: Table S4 footnote c, ref 5 (SI).
[9] abbreviates: Table S4 footnote d, ref 6 (SI).
Setting [10] is: Table S4 footnote e, ref 7 (SI).

Read-outs that look alike come from different tables or passages of the source. Marks after values point to notes of the source that are not given here.

Consider `O=C(O)CN1CCN(CC(=O)O)CCN(CC(=O)O)CCN(CC(=O)O)CC1` [DOTA, 1,4,7,10-tetraazacyclododecane-1,4,7,10-tetraacetic acid], for which, in series [1], the “log KML (M = Cu^2+)” value is on record as 22.21(1) ^f. For the same compound, the “log KML (M = Ga^3+)” value in series [2] is on record as 21.33 ^g. In series [3], this compound came in with a pCu of 16.2. In addition, in series [4] (setting [7]), the “log KHqL, H2L + H+ ⇆ H3L” value is 4.548 (3); the “log KHqL, H3L + H+ ⇆ H4L” value is given as 4.130 (3); the “log KHqL, HL + H+ ⇆ H2L” value is 9.680 (1); the “log KHqL, L + H+ ⇆ HL” value was 12.09 (4). Also, the “∑log KHqL” value in series [4] (setting [7]) is recorded as 30.448.

In the case of `O=C([O-])CN1CCN(CC(=O)[O-])CCN(CC(=O)[O-])CCN(CC(=O)[O-])CC1.[Ga+3]` [Ga^III-DOTA], in series [2], the pGa is 18.5 and the “log KML (M = Ga^3+)” value is listed as 21.33.

For `O=C(O)c1cccc(CNCCNCc2cccc(C(=O)O)n2)n1` [H2dedpa, 1,2-bis[[(6-carboxypyridin-2-yl)methyl]amino]ethane], the “log KML (M = Cu^2+)” value in series [1] was 19.16(5) ^d. Moreover, the pCu in series [1] (−log [Mfree] at [L] = 10 μM, [M] = 1 μM, pH = 7.4) is 18.5 ^d. Further, in series [4] (setting [8]), the “log KHqL, H2L + H+ ⇆ H3L” value is listed as 3.04; the “log KHqL, H3L + H+ ⇆ H4L” value is 2.59; the “log KHqL, HL + H+ ⇆ H2L” value is 6.31; the “log KHqL, L + H+ ⇆ HL” value is recorded as 9.00. In series [4] (setting [9]), the “log KHqL, H2L + H+ ⇆ H3L” value is 3.08 (2); the “log KHqL, H3L + H+ ⇆ H4L” value is 2.33 (3); the “log KHqL, HL + H+ ⇆ H2L” value is 6.18 (2); the “log KHqL, L + H+ ⇆ HL” value is reported as 8.69 (1). In series [5], the “pGa, corrected value” is 22.2 ^e and the “log KML (M = Ga^3+), corrected value” is on record as 22.9(1) ^e.

`O=C(O)CN1CCN(CC(=O)O)CCN(CC(=O)O)CC1` [NOTA, 1,4,7-triazacyclononane-1,4,7-triacetic acid]: the “log KML (M = Cu^2+)” value in series [1] is 21.6 ^d. Also, in series [2], the pGa was 27.9 ^g and the “log KML (M = Ga^3+)” value is 30.98 ^g. The compound further came in with a pCu in series [3] of 19.2. Moreover, in series [4] (setting [10]), the “log KHqL, H2L + H+ ⇆ H3L” value is given as 3.163(3); the “log KHqL, H3L + H+ ⇆ H4L” value was 1.955(3); the “log KHqL, HL + H+ ⇆ H2L” value is on record as 6.032(4); the “log KHqL, L + H+ ⇆ HL” value is on record as 10.773(7). Besides, the “∑log KHqL” value in series [4] (setting [10]) is recorded as 21.923.

On to `O=C([O-])c1cccc(CNCCNCc2cccc(C(=O)[O-])n2)n1.[Ga+3]` [[Ga(dedpa)]^+], for which the “log KML (M = Ga^3+)” value in series [2] is on record as 28.11(8). Besides, in series [5], the “pGa, corrected value” is 22.2 and the “log KML (M = Ga^3+), corrected value” is listed as 22.9(1).

In the case of “N,N′-Bis(3-aminopropyl)-N,N′-bis(6-carboxypyridin-2-yl)-1,2-diaminoethane [H2L^1]”, in series [6], the “log KHqL, H2L + H+ ⇆ H3L (log K3)” value amounted to 6.78; the “log KHqL, H3L + H+ ⇆ H4L (log K4)” value was found to be 4.23; the “log KHqL, H4L + H+ ⇆ H5L (log K5)” value is listed as 2.79; the “log KHqL, H5L + H+ ⇆ H6L (log K6)” value is listed as 2.01. In series [6], the “log KHqL, HL + H+ ⇆ H2L (log K2)” value was 9.91 and the “log KHqL, L + H+ ⇆ HL (log K1)” value is 10.86.
